Measurements reported in publication PMC8279406 (Journal of Medicinal Chemistry, 2021).

Columns and labels:
[1] = target: T1, human αvβ6 integrin (Homo sapiens, UniProt P06756+P18564); assay: LAP(TGF-β1)-αvβ6 competitive solid-phase ELISA binding assay; settings: immobilized LAP, soluble integrin
T1 construct: using immobilized ECM protein and soluble integrin; purchased R&D Systems (Biotechne brand) 3817-AV
Procedure: (§1) The affinity and selectivity of the integrin peptide ligands were ascertained according to a modified method previously reported by some of us.[33],[47] The binding was determined in a competitive solid-phase binding assay using extracellular matrix proteins, soluble integrins, and pertinent integrin-specific antibodies in an enzyme-linked immunosorbent assay (ELISA).
A flat-bottom 96-well ELISA plate was coated overnight at 4 °C with 100 μL/well of 0.4 μg/mL LAP previously diluted in carbonate buffer (15 mM Na2CO3, 35 mM NaHCO3, pH 9.6). Afterward, each well was then washed three times with 200 μL of PBS-T buffer (137 mM NaCl, 2.7 mM KCl, 10 mM Na2HPO4, 2 mM KH2PO4, 0.01% Tween 20, pH 7.4) and blocked for 1 h at room temperature with 150 μL/well TSB buffer (20 mM Tris–HCl, 150 mM NaCl, 1 mM CaCl2, 1 mM MgCl2, 1 mM MnCl2, pH 7.5, 1% BSA). Then, each well was washed three times with 200 μL of PBS-T.
Equal volumes (50 μL) of the internal standard (or test compounds) were mixed with 0.5 μg/mL human integrin αvβ6 (50 μL) giving a final dilution series in TSB buffer of 0.00064–10 μM for the inhibitors and 0.25 μg/mL for integrin αvβ6. These solutions (100 μL/well) were added to the flat-bottom ELISA plate and incubated for 1 h at room temperature. The solutions were discarded from the wells, and the plate was washed three times with PBS-T buffer (3 × 200 μL). […] The solutions were discarded from the wells, and the plate was washed three times with PBS-T (3 × 200 μL). The binding assay was developed by adding 50 μL/well of the 3,3′,5,5′-tetramethylbenzidine (TMB) liquid substrate system and incubating for 1 min at room temperature. The reaction was stopped by adding 50 μL/well of 3 M H2SO4. The peroxidase product formation was detected by measuring the absorbance at […] using a plate reader (Tecan SpectraFLUOR plus, Männedorf, Switzerland). Each compound concentration was tested in duplicate, and the resulting inhibition curves were analyzed using OriginPro 7.5G software; the inflection point describes the IC50 value. Each plate contained a linear peptide ([…]) as the internal standard.[63]

[2] = system: T2, integrin β8; assay: Integrin internalization assay, surface integrin β8 by flow cytometry; assay type: cell-based, human; settings: J cells with nectin1, αvβ6 and αvβ8, 700 μM, 1 h at 37 °C
T2 construct: expressed in transfected cells; host or cells: J cells (derivatives of BHK-TK2 hamster cells)
Description: Therefore, another mechanism might be responsible for the activity of 6 on J cells expressing αvβ8 integrin alone as well as the higher activity of 6 than that of 1 in cells that express both αvβ6 and αvβ8.[38] Thus, we hypothesized that 6 can prevent HSV-1 entry into J cells expressing nectin1 and the αvβ8 integrin alone by inducing internalization of the integrin itself. To validate our hypothesis, J cells were transfected with nectin1 and the two integrins αvβ6 and αvβ8 in the above-described manner. Then, 48 h after transfection, the cells were incubated for 60 min at 37 °C with 1 or 6. The surface expression of integrin β6 and β8, in the presence or the absence of peptides, was then evaluated by flow cytometry using FAB4155A (mAbβ6) and FAB4775A (mAbβ8) monoclonal antibodies that recognize other integrin regions than the RGD-binding domain.
Figure 5 Integrin internalization assay. J cells were transfected with a low amount (75 ng of DNA/24 well) of nectin1 plus αvβ6 integrin (300 ng of DNA/24 well) and αvβ8 integrin (300 ng of DNA/24 well). Then, 48 h after transfection, the cells were exposed to 700 μM peptides for 1 h at 37 °C. […] Integrin and nectin1 surface expression levels were quantified as flow cytometry expression of the APC mean fluorescence intensity (MFI) of gated cells. […]

[3] = target: T3, human α5β1 integrin (Homo sapiens, UniProt P05556+P08648); assay: Fibronectin-α5β1 competitive solid-phase ELISA binding assay; settings: immobilized fibronectin, soluble integrin
T3 construct: purchased R&D Systems (Biotechne brand) 3230-A5
Procedure: as §1
The experimental procedure was as described for the αvβ6 assay, except for the following modifications. […] Visualization and analysis were performed as described above.

[4] = target: T4, human αvβ3-integrin (Homo sapiens, UniProt P05106+P06756); assay: Vitronectin-αvβ3 competitive solid-phase ELISA binding assay
T4 construct: purchased R&D Systems (Biotechne brand) 3050-AV
Procedure: as §1
The experimental procedure was as described for the αvβ6 assay, except for the following modifications. The plates were coated with 100 μL/well of 1.0 μg/mL vitronectin in carbonate buffer, washed, and blocked as described above. […] As a primary antibody, 100 μL/well of 2.0 μg/mL primary antibody (mouse antihuman CD51/61) was used. The secondary antibody used was the same as that used for the integrin αvβ6 assay. Visualization and analysis were performed as described above.

**Q.** `CN1C(=O)[C@H](C2CCCCC2)NC(=O)[C@H](CC(=O)O)NC(=O)CNC(=O)[C@H](CCCNC(=N)N)NC(=O)CC[C@H]1C(N)=O` [compound 6, [Arg-Gly-Asp-Chg-(NMe)Glu]-CONH2] was tested. Which IC50 [1] did it give?
**A.** Its IC50 is 1.6 ± 0.1 nM.

**Q.** And the “integrin β8 surface level (in words)” value [2]?
**A.** The value was “reduced”.

**Q.** What about the IC50 [3] of the same compound?
**A.** The IC50 was 112 ± 26 nM.

**Q.** What about the “binding affinity for αvβ3 (in words)” value [4] of the same compound?
**A.** The value was “no significant binding affinity”.

**Q.** And the IC50 ([4]; competitive ELISA, immobilized vitronectin, soluble integrin)?
**A.** Its IC50 is 1200 ± 121 nM.
